Values joined by “and” are separate entries in the source; they are usually repeats but may differ in a detail not shown here. Identical values can stand only once. Like-named read-outs stand apart in the source and are kept apart here.
Experiments:
[1] = rats; IV; within 2 minutes; cited from earlier work
[2] = cited from earlier work
[3] = cited from earlier work; for Blood Ox-MT concentration: human whole blood
[4] = Pig single oral dose pharmacokinetic study (blood and brain); format: in vivo, pigs; conditions: single oral 20 mg/kg
Method: Finally, a comparison was made between the compartment predictions and the results from an oral study in which pigs were administered a single 20 mg/kg dose, and brain levels of MT were determined. […] Blood (0.5, 1, 2, 4, 8, 12, 24 and 48 h) and urine (1, 2, 3, 4, 5, 6, 7, 8, 12, and 24 h) were collected at regular timepoints up to 48 hrs. Two animals were sacrificed at each of 1, 8, 24 and 48 h post dose and brain samples retained. Pharmacokinetic evaluation of the free base of MTC was performed on whole blood and brain tissue samples. Two batches of brain tissue sample were extracted for each animal and analysed essentially as described by Peter et al (2000).
Brain tissue (500 mg) was vortexed and then extracted with dichloroethane (5 ml) and the organic phase taken to dryness under nitrogen. The extract was taken up with methanol and separated by reverse-phase HPLC with ultraviolet detection.

[5] = cited from earlier work; for L-MT urinary excretion rate / Ox-MT urinary excretion rate: 10 mg MTC oral
[6] = repeat dose 15 mg/24 hr, day 14
[7] = repeat dose 15 mg/24 hr, day 21
[8] = repeat dose 300 mg/24 hr, day 7
[9] = repeat dose 300 mg/24 hr, day 14
[10] = repeat dose 300 mg/24 hr, day 21
[11] = human, time 0.5 hr (mid-time 0.25 hr)
[12] = human, time 1 hr (mid-time 0.75 hr)
[13] = human, time 2 hr (mid-time 1.5 hr)
[14] = human, time 3 hr (mid-time 2.5 hr)
[15] = human, time 4 hr (mid-time 3.5 hr)
[16] = human, time 6 hr (mid-time 5 hr)
[17] = human, time 9 hr (mid-time 7.5 hr)
[18] = human, time 24 hr (mid-time 16.5 hr)
[19] = human, time 33 hr (mid-time 28.5 hr)
[20] = human, time 48 hr (mid-time 40.5 hr)
[21] = human, time 57 hr (mid-time 52.5 hr)
[22] = human, time 72 hr (mid-time 64.5 hr)
[23] = human, time 81 hr (mid-time 76.5 hr)
[24] = human, time 96 hr (mid-time 88.5 hr)
[25] = human, time 105 hr (mid-time 100.5 hr)
[26] = human, time 120 hr (mid-time 112.5 hr)
[27] = human, 10 mg oral, non-compartmental secondary parameter
[28] = human, 10 mg oral, urinary excretion data

CN(C)c1ccc2nc3ccc(=[N+](C)C)cc-3sc2c1 [MTC, methylthioninium chloride]
dose recovered from the major organs [1]: approximately 25%
24 hr urinary excretion, L-MT (summary line) ([2]; repeat dose 15 mg/24 hr): 7.2 mg
24 hr urinary excretion, Ox-MT (summary line) ([2]; repeat dose 15 mg/24 hr): 5.8 mg
% of total urinary excretion, L-MT ([2]; repeat dose 15 mg/24 hr): 55.3%
% of total urinary excretion, Ox-MT ([2]; repeat dose 15 mg/24 hr): 44.8%
F (apparent bioavailability), L-MT ([2]; repeat dose 15 mg/24 hr): 0.48
F (apparent bioavailability), Ox-MT ([2]; repeat dose 15 mg/24 hr): 0.39
24-hr urinary excretion, L-MT ([2]; repeat dose 15 mg/24 hr, day 7): 7.2 mg
24-hr urinary excretion, Ox-MT ([2]; repeat dose 15 mg/24 hr, day 7): 6.1 mg
24-hr urinary excretion, L-MT [2, 6]: 8 mg
24-hr urinary excretion, Ox-MT [2, 6]: 5.3 mg
24-hr urinary excretion, L-MT [2, 7]: 6.4 mg
24-hr urinary excretion, Ox-MT [2, 7]: 6.1 mg
24 hr urinary excretion, L-MT (summary line) ([2]; repeat dose 300 mg/24 hr): 69.2 mg
24 hr urinary excretion, Ox-MT (summary line) ([2]; repeat dose 300 mg/24 hr): 43.4 mg
% of total urinary excretion, L-MT ([2]; repeat dose 300 mg/24 hr): 61.5%
% of total urinary excretion, Ox-MT ([2]; repeat dose 300 mg/24 hr): 38.6%
F (apparent bioavailability), L-MT ([2]; repeat dose 300 mg/24 hr): 0.23
F (apparent bioavailability), Ox-MT ([2]; repeat dose 300 mg/24 hr): 0.14
24-hr urinary excretion, L-MT [2, 8]: 75.6 mg
24-hr urinary excretion, Ox-MT [2, 8]: 43.9 mg
24-hr urinary excretion, L-MT [2, 9]: 71.6 mg
24-hr urinary excretion, Ox-MT [2, 9]: 41.1 mg
24-hr urinary excretion, L-MT [2, 10]: 60.4 mg
24-hr urinary excretion, Ox-MT [2, 10]: 45.2 mg
% of total urinary excretion, L-MT ([2]; single dose 25 mg): 15.8%
% of total urinary excretion, Ox-MT ([2]; single dose 25 mg): 84.2%
F (apparent bioavailability), L-MT ([2]; single dose 25 mg): 0.11
F (apparent bioavailability), Ox-MT ([2]; single dose 25 mg): 0.60
F (apparent bioavailability), Total-MT ([2]; single dose 25 mg): 0.71
urinary excretion, L-MT ([2]; single dose 25 mg): 2.8 mg
urinary excretion, Ox-MT ([2]; single dose 25 mg): 14.9 mg
urinary excretion, Total-MT ([2]; single dose 25 mg): 17.7 mg
% of total urinary excretion, L-MT ([2]; single dose 50 mg): 8.8%
% of total urinary excretion, Ox-MT ([2]; single dose 50 mg): 91.2%
F (apparent bioavailability), L-MT ([2]; single dose 50 mg): 0.054
F (apparent bioavailability), Ox-MT ([2]; single dose 50 mg): 0.56
F (apparent bioavailability), Total-MT ([2]; single dose 50 mg): 0.62
urinary excretion, L-MT ([2]; single dose 50 mg): 2.7 mg
urinary excretion, Ox-MT ([2]; single dose 50 mg): 28.1 mg
urinary excretion, Total-MT ([2]; single dose 50 mg): 30.8 mg
% of total urinary excretion, L-MT ([2]; single dose 100 mg): 15.2%
% of total urinary excretion, Ox-MT ([2]; single dose 100 mg): 84.8%
F (apparent bioavailability), L-MT ([2]; single dose 100 mg): 0.060
F (apparent bioavailability), Ox-MT ([2]; single dose 100 mg): 0.34
F (apparent bioavailability), Total-MT ([2]; single dose 100 mg): 0.40
urinary excretion, L-MT ([2]; single dose 100 mg): 6 mg
urinary excretion, Ox-MT ([2]; single dose 100 mg): 33.5 mg
urinary excretion, Total-MT ([2]; single dose 100 mg): 39.5 mg
terminal elimination half-life deduced by Peter et al. ([3]; from analysis of blood concentration data): 5.5 to 6.3 h
Blood Ox-MT concentration ([3]; 100 mg MTC IV, 0.09 hr): 6.06 µmol/L
Blood Ox-MT concentration ([3]; 100 mg MTC IV, 0.15 hr): 3.32 µmol/L
Blood Ox-MT concentration ([3]; 100 mg MTC IV, 0.24 hr): 1.73 µmol/L
Blood Ox-MT concentration ([3]; 100 mg MTC IV, 0.33 hr): 1.65 µmol/L
Blood Ox-MT concentration ([3]; 100 mg MTC IV, 0.5 hr): 0.78 µmol/L
Blood Ox-MT concentration ([3]; 100 mg MTC IV, 0.65 hr): 0.61 µmol/L
Blood Ox-MT concentration ([3]; 100 mg MTC IV, 0.83 hr): 0.39 µmol/L
Blood Ox-MT concentration ([3]; 100 mg MTC IV, 1.01 hr): 0.41 µmol/L
Blood Ox-MT concentration ([3]; 100 mg MTC IV, 1.99 hr): 0.26 µmol/L
Blood Ox-MT concentration ([3]; 100 mg MTC IV, 4 hr): 0.18 µmol/L
Blood Ox-MT concentration ([3]; 100 mg MTC oral (mean of with and without Mesna), 0 hr): 0 µmol/L
Blood Ox-MT concentration ([3]; 100 mg MTC oral (mean of with and without Mesna), 0.09 hr): 0.00064 µmol/L
Blood Ox-MT concentration ([3]; 100 mg MTC oral (mean of with and without Mesna), 0.15 hr): 0.0011 µmol/L
Blood Ox-MT concentration ([3]; 100 mg MTC oral (mean of with and without Mesna), 0.24 hr): 0.0064 µmol/L
Blood Ox-MT concentration ([3]; 100 mg MTC oral (mean of with and without Mesna), 0.33 hr): 0.017 µmol/L
Blood Ox-MT concentration ([3]; 100 mg MTC oral (mean of with and without Mesna), 0.5 hr): 0.041 µmol/L
Blood Ox-MT concentration ([3]; 100 mg MTC oral (mean of with and without Mesna), 0.83 hr): 0.055 µmol/L
Blood Ox-MT concentration ([3]; 100 mg MTC oral (mean of with and without Mesna), 1.01 hr): 0.064 µmol/L
Blood Ox-MT concentration ([3]; 100 mg MTC oral (mean of with and without Mesna), 1.99 hr): 0.069 µmol/L
Blood Ox-MT concentration ([3]; 100 mg MTC oral (mean of with and without Mesna), 4 hr): 0.038 µmol/L
% of dose excreted in urine at 24 hr ([3]; human, 100 mg MTC, IV): 28.6 % of dose
AUC ([3]; human, 100 mg MTC, IV): 0.134 µmol/min/mL
Cl (clearance) ([3]; human, 100 mg MTC, IV): 3 L/h
Estimated elimination T½: blood (1-4 hr) ([3]; human, 100 mg MTC, IV): 5.25 h
% of dose excreted in urine at 24 hr ([3]; human, 100 mg MTC, Oral): 18.6 % of dose
AUC ([3]; human, 100 mg MTC, Oral): 0.011 µmol/min/mL
Estimated elimination T½: urine (4-24 hr) ([3]; human, 100 mg MTC, Oral): 6.6 h
fraction of total MT excreted in the urine in the L-MB form ([3]; human, did not differ between oral and IV dosing): approximately ⅓
half-life ([4]; brain, read-out: terminal elimination half-life, brain (converted)): 23.5 h
half-life ([4]; whole blood, read-out: terminal elimination half-life, blood (converted)): 23.5 h
terminal elimination half-life deduced by DiSanto and Wagner ([5]; from urinary excretion data): 15 to 16.5 h
L-MT urinary excretion rate [5, 11]: 14.01 µg/h
Ox-MT urinary excretion rate [5, 11]: 2.31 µg/h
L-MT urinary excretion rate [5, 12]: 385.06 µg/h
Ox-MT urinary excretion rate [5, 12]: 20.59 µg/h
L-MT urinary excretion rate [5, 13]: 659.14 µg/h
Ox-MT urinary excretion rate [5, 13]: 38.66 µg/h
L-MT urinary excretion rate [5, 14]: 474.29 µg/h
Ox-MT urinary excretion rate [5, 14]: 50.56 µg/h
L-MT urinary excretion rate [5, 15]: 384.43 µg/h
Ox-MT urinary excretion rate [5, 15]: 40.66 µg/h
L-MT urinary excretion rate [5, 16]: 290.50 µg/h
Ox-MT urinary excretion rate [5, 16]: 53.01 µg/h
L-MT urinary excretion rate [5, 17]: 120.29 µg/h
Ox-MT urinary excretion rate [5, 17]: 42.86 µg/h
L-MT urinary excretion rate [5, 18]: 78.72 µg/h
Ox-MT urinary excretion rate [5, 18]: 37.99 µg/h
L-MT urinary excretion rate [5, 19]: 41.87 µg/h
Ox-MT urinary excretion rate [5, 19]: 24.34 µg/h
L-MT urinary excretion rate [5, 20]: 26.77 µg/h
Ox-MT urinary excretion rate [5, 20]: 11.02 µg/h
L-MT urinary excretion rate [5, 21]: 14.11 µg/h
Ox-MT urinary excretion rate [5, 21]: 5.00 µg/h
L-MT urinary excretion rate [5, 22]: 7.88 µg/h
Ox-MT urinary excretion rate [5, 22]: 4.98 µg/h
L-MT urinary excretion rate [5, 23]: 6.39 µg/h
Ox-MT urinary excretion rate [5, 23]: 2.53 µg/h
L-MT urinary excretion rate [5, 24]: 3.09 µg/h
Ox-MT urinary excretion rate [5, 24]: 1.74 µg/h
L-MT urinary excretion rate [5, 25]: 3.02 µg/h
Ox-MT urinary excretion rate [5, 25]: 1.23 µg/h
L-MT urinary excretion rate [5, 26]: 1.91 µg/h
Ox-MT urinary excretion rate [5, 26]: 0.88 µg/h
MRT, Free (Ox-MTC) ([5]; human, 10 mg oral): 24.5000 h
MRT, Leuco (L-MT) ([5]; human, 10 mg oral): 16.8774 h
T½ (distribution), Free (Ox-MTC) ([5]; human, 10 mg oral): 0.5930 h
T½ (distribution), Leuco (L-MT) ([5]; human, 10 mg oral): 1.1530 h
T½ (elimination), Free (Ox-MTC) ([5]; human, 10 mg oral): 15.0364 h
T½ (elimination), Leuco (L-MT) ([5]; human, 10 mg oral): 16.4953 h
Urinary excretion (% of total), Free (Ox-MT) ([5]; human, 10 mg oral): 23% and 22.94%
Urinary excretion (% of total), Leuco (L-MT) ([5]; human, 10 mg oral): 77% and 77.06%
total urinary recovery ([5]; human, 10 mg oral): 65 % of dose
AUC, Leuco (L-MT) [5, 27]: 4981.55 µg·h
CI, Free (Ox-MTC) [5, 27]: 6.7420 L/h
CI, Leuco (L-MT) [5, 27]: 2.0074 L/h
F (calculated bioavailability), Free (Ox-MTC) [5, 27]: 0.1483
F (calculated bioavailability), Leuco (L-MT) [5, 27]: 0.4982
Vc, Free (Ox-MTC) [5, 27]: 4.4188 L
Vc, Leuco (L-MT) [5, 27]: 4.1152 L
K12, Free (Ox-MTC) [5, 28]: 0.7506
K12, Leuco (L-MT) [5, 28]: 0.2962
K21, Free (Ox-MTC) [5, 28]: 0.2381
Kel (terminal elimination rate constant), Free (Ox-MTC) [5, 28]: 0.2263
Kel (terminal elimination rate constant), Leuco (L-MT) [5, 28]: 0.2430
Tlag, Free (Ox-MTC) [5, 28]: 0.2078 h
Tlag, Leuco (L-MT) [5, 28]: 0.2381 h
VcF (Vc × F), Leuco (L-MT) [5, 28]: 8.2607 L
terminal elimination half-life (Ox-MT and L-MT comparable) [5, 28]: ~16 h
corrected apparent central volume (Ox-MT and L-MT comparable) ([5]; in vivo, po): 4 L

— patent US20190151329A1, “THERAPEUTIC USE OF DIAMINOPHENOTHIAZINES” (WisTa Laboratories Ltd., priority 2007, published 2019)
